From patent US8623862B2, “Derivatives of N-[(1H-pyrazol-1-yl)aryl]-1H-indole or 1H-indazole-3-carboxamide, preparation thereof and applications thereof in therapeutics” (Sanofi, priority 2011, dated 2014)
Read-outs that look alike come from different tables or passages of the source.

Tested on: platelet aggregation
Experiment: Inhibition of platelet aggregation in vitro (rat blood);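 note: aggregation induced by ADP added as 4 µL of a 250 µM solution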
Type: cell-based
Settings: read-out: Inhibition of platelet aggregation in vitro (rat blood);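 note: aggregation induced by ADP added as 4 µL of a 250 µM solution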
Procedure: The measurements of platelet aggregation are performed at 37° C. in glass tubes (Chrono-Log—Kordia aggregometer).
Inhibition of Platelet Aggregation In Vitro (Rat Blood)
The blood is taken from male rats of the Sprague-Dawley strain, weighing 250-300 g.
The platelet-rich plasma (PRP) is obtained by centrifugation of the blood at 300 g for 5 minutes, and the measurements of platelet aggregation are performed as described above.
The results are calculated using the area under the curve of absorbance measured for 6 minutes, and expressed as percentage inhibition.

[1] = rat platelet-rich plasma, ADP-induced aggregation, area under the curve of absorbance for 6 minutes

SMILES	IC50 [1]	IC50 (rat blood, in vitro)	other results
CCCC(=O)c1cnn(-c2ccc(NC(=O)c3cn(CC(=O)O)c4ccc(Cl)cc34)cc2)c1C [Compound 3, (3-{[4-(4-butyryl-5-methyl-1H-pyrazol-1-yl)phenyl]carbamoyl}-5-chloro-1H-indol-1-yl)acetic acid]	–	–	IC50 (0.1 h, rat platelet-rich plasma, ADP-induced aggregation, area under the curve of absorbance for 6 minutes): 2800 nM
CCCC(=O)c1cnn(-c2ccc(NC(=O)c3cn(CC(=O)N4CCN(C(=O)N(C)C)CC4)c4ccc(Cl)cc34)nn2)c1C [Compound 69]	100 nM	–	–
CCCC(=O)c1cnn(-c2ccc(NC(=O)c3cn(CC(=O)N4CCN(CC(=O)NC)CC4)c4ccc(Cl)cc34)cc2)c1C [Compound 163]	–	290 nM	–
CCCC(=O)c1cnn(-c2ccc(NC(=O)c3cn(CC(=O)N4CCN(C)C(=O)C4)c4ccc(Cl)cc34)cc2)c1C [Compound 184]	–	170 nM	–
CCCC(=O)c1cnn(-c2ccc(NC(=O)c3cn(CC(=O)N4CCN5C(=O)CCC5C4)c4ccc(Cl)cc34)cc2)c1C (stereo not shown) [Compound 183]	–	230 nM	–
CCCC(=O)c1cnn(-c2ccc(NC(=O)c3cn(CC(=O)N4CCOCC4)c4ccc(Cl)cc34)nn2)c1C [Compound 35]	190 nM	–	–
CCCC(=O)c1cnn(-c2ccc(NC(=O)c3cn(CC(=O)N(C)C)c4cc(C)c(C)cc34)cc2)c1C [Compound 106]	–	2210 nM	–
CCCC(=O)c1cnn(-c2ccc(NC(=O)c3cn(CC(=O)N4CCN(C5COC5)CC4)c4ccc(Cl)cc34)cc2)c1C [Compound 191]	–	160 nM	–
CCCC(=O)c1cnn(-c2ccc(NC(=O)c3cn(CC(=O)N4CCNC(CO)C4)c4ccc(C)cc34)cc2)c1C (stereo not shown) [Compound 249]	240 nM	–	–
CCCC(=O)c1cnn(-c2ccc(NC(=O)c3cn(CC(=O)NCc4n[nH]c(C)n4)c4ccc(Cl)cc34)nn2)c1C [Compound 74]	120 nM	–	–
CCCC(=O)c1cnn(-c2ccc(NC(=O)c3cn(CC(=O)NC(C)c4nn[nH]n4)c4ccc(Cl)cc34)nn2)c1C (stereo not shown) [Compound 78]	280 nM	–	–
CCCC(=O)c1cnn(-c2ccc(NC(=O)c3cn(CC(=O)O)c4ccc(N(C)C)cc34)cc2)c1C [Compound 22]	1200 nM	–	–
CCC(=O)c1cnn(-c2ccc(NC(=O)c3cn(CC(=O)N4CCN(C)CC4)c4ccc(Cl)cc34)cc2)c1C [Compound 217]	–	600 nM	–
CCCC(=O)c1cnn(-c2ccc(NC(=O)c3cn(CC(=O)N4CCN(CC(=O)NC(C)C)CC4)c4ccc(Cl)cc34)nn2)c1C [Compound 39]	40 nM	–	–
CCCC(=O)c1cnn(-c2ccc(NC(=O)c3cn(CC(=O)N4CCN(C)C(C)C4)c4ccc(C)cc34)cc2)c1C (stereo not shown) [Compound 269]	350 nM	–	–
CCCC(=O)c1cnn(-c2ccc(NC(=O)c3cn(CC(=O)N4CCN(Cc5ccccc5OC)CC4)c4ccc(Cl)cc34)cc2)c1C [Compound 168]	–	370 nM	–
CCCC(=O)c1cnn(-c2ccc(NC(=O)c3cn(CC(=O)N(C)CCO)c4ccc(Cl)cc34)nn2)c1C [Compound 38]	70 nM	–	–
CCCC(=O)c1cnn(-c2ccc(NC(=O)c3cn(CC(=O)N4CCN(C)C(C)(C)C4)c4ccc(Cl)cc34)cc2)c1C [Compound 186]	–	250 nM	–
CCCC(=O)c1cnn(-c2ccc(NC(=O)c3cn(CC(=O)N4CCN(CCNC(C)=O)CC4)c4ccc(Cl)cc34)cc2)c1C [Compound 197]	–	250 nM	–
CCCC(=O)c1cnn(-c2ccc(NC(=O)c3cn(CC(=O)N4CCN(CCOC)CC4)c4cc(F)c(Cl)cc34)cc2)c1C [Compound 158]	–	340 nM	–
CCCC(=O)c1cnn(-c2ccc(NC(=O)c3cn(CC(=O)O)c4cc(C)c(C)cc34)cc2)c1C [Compound 16]	4600 nM	–	–

SMILES	IC50 [1]	IC50 (rat blood, in vitro)	other results
CCCC(=O)c1cnn(-c2ccc(NC(=O)c3cn(CC(=O)N4Cc5ccncc5C4)c4ccc(Cl)cc34)nn2)c1C [Compound 76]	60 nM	–	–
CCCC(=O)c1cnn(-c2ccc(NC(=O)c3cn(CC(=O)N4CCN(C)CC4)c4ccc(C)cc34)cc2)c1C [Compound 114]	–	270 nM	–
CCCC(=O)c1cnn(-c2ccc(NC(=O)c3cn(CC(=O)N4CCN(C)C(=O)C4)c4ccc(Cl)cc34)nn2)c1C [Compound 44]	160 nM	–	–
CCCC(=O)c1cnn(-c2ccc(NC(=O)c3cn(CC(=O)O)c4ccc(OC)cc34)cc2)c1C [Compound 12]	17000 nM	–	–
CCCC(=O)c1cnn(-c2ccc(NC(=O)c3cn(CC(=O)O)c4ccc(C(F)(F)F)cc34)cc2)c1C [Compound 13]	4600 nM	–	–
CCCC(=O)c1cnn(-c2ccc(NC(=O)c3cn(CC(=O)N4CCC(N)CC4)c4ccc(C)cc34)cc2)c1C [Compound 252]	400 nM	–	–
CCCC(=O)c1cnn(-c2ccc(NC(=O)c3cn(CC(=O)N4CCN(CC)CC4)c4ccc(C)cc34)cc2)c1C [Compound 117]	–	500 nM	–
CCCC(=O)c1cnn(-c2ccc(NC(=O)c3cn(CC(=O)N4CCC(O)C4)c4ccc(Cl)cc34)nn2)c1C (racemic) [Compound 49]	220 nM	–	–
CCCC(=O)c1cnn(-c2ccc(NC(=O)c3cn(CC(=O)N4CCN(CCOCCO)CC4)c4ccc(Cl)cc34)cc2)c1C [Compound 144]	–	190 nM	–
CCCC(=O)c1cnn(-c2ccc(NC(=O)c3cn(CC(=O)N4CCN(CC(=O)N(C)C)CC4)c4ccc(Cl)cc34)nn2)c1C [Compound 101]	110 nM	–	–
CCCC(=O)c1cnn(-c2ccc(NC(=O)c3cn(CC(=O)N4CCN5CCCCC5C4)c4ccc(Cl)cc34)nn2)c1C (racemic) [Compound 67]	90 nM	–	–
CCCC(=O)c1cnn(-c2ccc(NC(=O)c3cn(CC(=O)N4CCN(CC(O)C(F)(F)F)CC4)c4ccc(Cl)cc34)cc2)c1C (stereo not shown) [Compound 209]	–	420 nM	–
CCCC(=O)c1cnn(-c2ccc(NC(=O)c3cn(CC(=O)N4CCN(Cc5ccncc5)CC4)c4ccc(Cl)cc34)nn2)c1C [Compound 102]	30 nM	–	–
CCCC(=O)c1cnn(-c2ccc(NC(=O)c3cn(CC(=O)N4CCN(C5CCC5)CC4)c4ccc(Cl)cc34)nn2)c1C [Compound 79]	80 nM	–	–
CCCC(=O)c1cnn(-c2ccc(NC(=O)c3cn(CC(=O)N4CCN(CCO)CC4)c4ccc(Cl)cc34)nn2)c1C [Compound 95]	50 nM	–	–
CCCC(=O)c1cnn(-c2ccc(NC(=O)c3cn(CC(=O)N4CCN(CC5CC5)CC4)c4ccc(C)cc34)cc2)c1C [Compound 121]	–	1060 nM	–
CCCC(=O)c1cnn(-c2ccc(NC(=O)c3cn(CC(=O)N4CCCC(N(C)C)C4)c4ccc(C)cc34)cc2)c1C (stereo not shown) [Compound 125]	–	580 nM	–
CCCC(=O)c1cnn(-c2ccc(NC(=O)c3cn(CC(=O)N4CCC(CCO)CC4)c4ccc(Cl)cc34)nn2)c1C [Compound 50]	50 nM	–	–
CCCC(=O)c1cnn(-c2ccc(NC(=O)c3cn(CC(=O)N4CC(O)C4)c4ccc(Cl)cc34)nn2)c1C [Compound 66]	220 nM	–	–
CCCC(=O)c1cnn(-c2ccc(NC(=O)c3cn(CC(=O)N4CCn5cnnc5C4)c4ccc(Cl)cc34)nn2)c1C [Compound 70]	110 nM	–	–
CCCC(=O)c1cnn(-c2ccc(NC(=O)c3cn(CC(=O)N4CCN(CCC)CC4)c4ccc(Cl)cc34)cc2)c1C [Compound 156]	–	300 nM	–

SMILES	IC50 [1]	IC50 (rat blood, in vitro)	other results
CCCC(=O)c1cnn(-c2ccc(NC(=O)c3cn(CC(=O)N4CC5CN(C)CC5C4)c4ccc(C)cc34)cc2)c1C (stereo not shown) [Compound 266]	400 nM	–	–
CCCC(=O)c1cnn(-c2ccc(NC(=O)c3cn(CC(=O)N(C)C)c4ccc(Cl)cc34)nn2)c1C [Compound 36]	110 nM	–	–
CCCC(=O)c1cnn(-c2ccc(NC(=O)c3cn(CC(=O)N(C)CCCO)c4ccc(Cl)cc34)nn2)c1C [Compound 72]	60 nM	–	–
CCCC(=O)c1cnn(-c2ccc(NC(=O)c3cn(CC(=O)N4CC(C)NC(C)C4)c4ccc(C)cc34)cc2)c1C (stereo not shown) [Compound 247]	260 nM	–	–
CCCC(=O)c1cnn(-c2ccc(NC(=O)c3cn(CC(=O)N4CCN(C)CC4)c4ccc(OC)cc34)cc2)c1C [Compound 136]	–	400 nM	–
CCCC(=O)c1cnn(-c2ccc(NC(=O)c3cn(CC(=O)NCc4cc(C)no4)c4ccc(Cl)cc34)nn2)c1C [Compound 96]	930 nM	–	–
CCCC(=O)c1cnn(-c2ccc(NC(=O)c3cn(CC(=O)N4CCN(CCOCC)CC4)c4ccc(Cl)cc34)nn2)c1C [Compound 93]	150 nM	–	–
CCCC(=O)c1cnn(-c2ccc(NC(=O)c3cn(CC(=O)N4CCN(C)C(CO)C4)c4ccc(C)cc34)cc2)c1C (stereo not shown) [Compound 268]	240 nM	–	–
CCCC(=O)c1cnn(-c2ccc(NC(=O)c3cn(CC(=O)N4CCC(N(C)C)C4)c4ccc(C)cc34)cc2)c1C (stereo not shown) [Compound 120]	–	270 nM	–
CCCC(=O)c1cnn(-c2ccc(NC(=O)c3cn(CC(=O)O)c4cc(Br)c(C)cc34)cc2)c1C [Compound 19]	42000 nM	–	–
CCCC(=O)c1cnn(-c2ccc(NC(=O)c3cn(CC(=O)N4CCC(OCCOC)C4)c4ccc(Cl)cc34)cc2)c1C (stereo not shown) [Compound 206]	–	830 nM	–
CCCC(=O)c1cnn(-c2ccc(NC(=O)c3cn(CC(=O)N4CC(O)C4)c4ccc(Cl)cc34)cc2)c1C [Compound 176]	–	390 nM	–
CCCC(=O)c1cnn(-c2ccc(NC(=O)c3cn(CC(=O)N(C)CCOC)c4ccc(Cl)cc34)nn2)c1C [Compound 61]	90 nM	–	–
CCCC(=O)c1cnn(-c2ccc(NC(=O)c3cn(CC(=O)N4CCN(CC(=O)OC)CC4)c4ccc(Cl)cc34)nn2)c1C [Compound 87]	40 nM	–	–
CCCC(=O)c1cnn(-c2ccc(NC(=O)c3cn(CC(=O)N(C)CCNC)c4ccc(C)cc34)cc2)c1C [Compound 126]	–	760 nM	–
CCCC(=O)c1cnn(-c2ccc(NC(=O)c3cn(CC(=O)N4CCn5ccnc5C4)c4ccc(Cl)cc34)cc2)c1C [Compound 172]	–	330 nM	–
CCCC(=O)c1cnn(-c2ccc(NC(=O)c3cn(CC(=O)O)c4cc(C)ccc34)cc2)c1C [Compound 8]	63000 nM	–	–
CCCC(=O)c1cnn(-c2ccc(NC(=O)c3cn(CC(=O)N(C)CC4CCOC4)c4ccc(Cl)cc34)nn2)c1C (stereo not shown) [Compound 91]	120 nM	–	–
CCCC(=O)c1cnn(-c2ccc(NC(=O)c3cn(CC(=O)O)c4cc(F)c(Cl)cc34)cc2)c1C [Compound 21]	2800 nM	–	–
